Results as given in patent US9539237B2, “Compositions and methods for drug-sensitization or inhibition of a cancer cell” (The Texas A&M University System, priority 2012, dated 2017).

What was measured:
total intracellular ROS = test: Intracellular ROS by CellROX staining and flow cytometry; assay type: cell-based
Source text: Cells were then stained with the fluorescent ROS indicator, CellROX, and subjected to flow cytometry to quantitate total intracellular ROS.
The electron transport chain (ETC) is known to be a primary generator of ROS in the cell. Most of the ROS is generated by Complexes I and III of the ETC. Inhibition of Complex I results in electrons piling up and leaking to react with oxygen to produce ROS.
MDR/P-gp activity is closely associated with calcium status in the cell, so calcium modulators were tested for effects on ROS. […] Relatively Dox-sensitive lymphoma (CRL2631, 10S, WSU) and ovarian carcinoma (OVCAR8) and more Dox-resistant lymphoma (G3R, 10R, WSUR) and ovarian carcinoma (ADR) were treated with 10 uM […] for 2 hrs. […] Cells were co-stained with the cell-permeable red fluorescent ROS indicator, CellROX, and cell-permeable green fluorescent calcium indicator. Fluo-4AM, and then subjected to flow cytometry to quantitate changes in ROS and calcium levels.
All samples were analyzed at the same time in flow cytometry.

[1] = tested on: CHOP-resistant G3 NHL cells; test: Cell growth assay (resazurin fluorescence) on G3 cells; assay type: cell-based, human; conditions: for Fold increase in potency over DOX alone: lymphoma cell line G3; for Magnitude of potentiation in combination with doxorubicin: G3
Protocol: Compositions were tested on CHOP-resistant G3 NHL cells that had been cultivated in RPMI medium for five days. Prior to assay, the cells were counted by haemocytometer and cell concentration standardized to 625,000 cells/ml. Test drugs were solubilized in 100% DMSO and then diluted to final assay concentration with 0.1M phosphate buffered saline (PBS) and a final DMSO concentration of 0.5%. […] The metabolic dye rezasurin was added to the wells of the assay plate at a final concentration of 20 μg/ml and the plates were incubated for an additional 24 hours. The plates were then read in a BMG Polarstar plate reader at wavelength (573-605) and the data plotted as OD versus increasing dilutions (i.e., decreasing total amounts) of rifabutin derivative concentration.
(§1) In these experiments, the following cell lines were used: CHOP-resistant NHL cell line G3, CHOP-sensitive NHL cell line CRL2631, the multi-drug resistant sarcoma cell line MES-SA-Dx5; multi-drug-resistant breast cancer cell line MDA-MB-231, multi-drug resistant ovarian carcinoma cell line SK-OV3, multi-drug resistant ovarian cancer cell line NCI/ADR-RES, drug-sensitive ovarian cancer cell line OVCAR-5, and multi-drug resistant ovarian cancer cell line OVCAR-3. […]

[2] = tested on: multi-drug resistant ovarian cancer cell line OVCAR-3; test: Cell growth assay on OVCAR-3 cells; assay type: cell-based
Source text: (§2) In these experiments, the following cell lines were used: CHOP-resistant NHL cell line G3, CHOP-sensitive NHL cell line CRL2631, the multi-drug resistant sarcoma cell line MES-SA-Dx5; multi-drug-resistant breast cancer cell line MDA-MB-231, multi-drug resistant ovarian carcinoma cell line SK-OV3, multi-drug resistant ovarian cancer cell line NCI/ADR-RES, drug-sensitive ovarian cancer cell line OVCAR-5, and multi-drug resistant ovarian cancer cell line OVCAR-3.
(§3) Additional cell lines used include: ovarian cancer OVCAR-8. T lymphoblastoid leukemia MOLT-4, dexamethasone-resistant multiple myeloma MM.1R, myeloid leukemia cells HL-60, osteosarcoma cells U-2 OS, and myeloma RPMI 8226.

[3] = tested on: multi-drug resistant ovarian carcinoma cell line SK-OV3; test: Cell growth assay on SK-OV3 cells; assay type: cell-based, human
Source text: as §1

[4] = tested on: multi-drug resistant ovarian cancer cell line NCI/ADR-RES; test: Cell growth assay on NCI/ADR-RES cells; assay type: cell-based
Source text: as §2, §3

[5] = tested on: multi-drug-resistant breast cancer cell line MDA-MB-231; test: Cell growth assay on MDA-MB-231 cells; assay type: cell-based
Source text: as §2, §3

[6] = tested on: multi-drug resistant sarcoma cell line MES-SA-Dx5; test: Cell growth assay on MES-SA-Dx5 cells; assay type: cell-based
Source text: as §2, §3

[7] = tested on: G3 CHOP-resistant NHL cells; test: G3 tumor efficacy studies in SCID mice; assay type: in vivo; conditions: fourth study
Protocol: In a first efficacy study, 6-8 week old female SCID mice (7 mice per treatment arm) were injected subcutaneously on both flanks with 1×10^7 G3 CHOP-resistant NHL cells. Once palpable tumors (about […] size) appeared, therapies (CHOP or CHOP+rifabutin) were started. CHOP was administered at the maximum tolerated dose (cyclophosphamide, 40 mg/kg i.v.; doxorubicin, 3.3 mg/kg i.v.; vincristine, 0.5 mg/kg i.v.; and prednisone, 0.2 mg/kg orally daily for 5 d) weekly for 3 weeks. Rifabutin in an amount of 100 mg/kg was administered on the day of each CHOP treatment and 24-hours later by gavage. Mouse body weight and tumor size were monitored every two days and tumor size measured by caliper. The tumor volume formula (L*W*W)/2 was used to calculate tumor mass.
A second efficacy study was conducted where mice were treated before the appearance of palpable tumors. In that experiment, one week after transplantation of CHOP-resistant G3 cells, one group (7 mice) was treated with CHOP-only and a second group (8 mice) was treated with CHOP+rifabutin.
A third study was conducted in which mice injected with CHOP-resistant G3 cells received reduced dosages of CHOP in combination with 33 mg/kg rifabutin. CHOP+rifabutin was administered weekly beginning one week post-inoculation. Control mice were given no CHOP or rifabutin.
SCID mice were injected with CHOP-resistant G3 cells in the same manner as the first efficacy study above. Treatments began 2 weeks post-inoculation and were administered twice weekly.

[8] = Dox-resistant G3 lymphoma cells, FIG. 40

| Compound | Fold increase in potency over DOX alone [1] [fold] | Magnitude of potentiation in combination with doxorubicin [2] | Magnitude of potentiation in combination with doxorubicin [3] | Magnitude of potentiation in combination with doxorubicin [1] | further results |
| --- | --- | --- | --- | --- | --- |
| C=C(C)[C@H]1Cc2c(ccc3c2O[C@@H]2COc4cc(OC)c(OC)cc4[C@@H]2C3=O)O1 [Rotenone] |  |  |  |  | Induction of ROS (total intracellular ROS; [8]): induced ROS |
| 11-deoxy-11-amino-4-deoxy-3,4[2-spiro-[1-(isobutylaminocarbonyl)-piperidin-4-yl]]-(1H)-imidazo-(2,5-dihydro)rifamycin S [RTI-183] | 0.5 | + (+ potentiation between 1.2 to 2.0 fold increase) |  |  |  |
| COC(=O)[C@H]1[C@H]2C[C@@H]3c4[nH]c5cc(OC)ccc5c4CCN3C[C@H]2C[C@@H](OC(=O)c2cc(OC)c(OC)c(OC)c2)[C@@H]1OC [reserpine] |  |  |  |  | Induction of ROS relative to control drugs (total intracellular ROS; ADR and OVCAR8 cells, FIG. 41A): induced ROS; Induction of ROS (total intracellular ROS; OVCAR8, ADR-RES and G3 cells, 2 hrs, 10 uM, FIG. 38): induced ROS |
| O=c1[nH]c2ccccc2n1C1CCN(Cc2ccc(-c3nc4cc5[nH]cnc5cc4nc3-c3ccccc3)cc2)CC1 [Akt Inhibitor VIII, reference compound] |  |  |  |  | Reversal of CHOP resistance ([1]; G3 cells, FIG. 30B): dose-dependent reversal of CHOP resistance |
| 11-deoxy-11-imino-4-deoxy-3,4[2-spiro-[1-(2-methoxyethyl)-piperidin-4-yl]]-(1H)-imidazo-(2,5-dihydro)rifamycin S [RTI-51] | 0.7 | + (+ potentiation between 1.2 to 2.0 fold increase) | + (+ potentiation between 1.2 to 2.0 fold increase) |  |  |
| 4-deoxy-3,4[2-spiro-[1-(isobutylaminocarbonyl)-piperidin-4-yl]]-(1H)-imidazo-(2,5-dihydro)rifamycin S [RTI-102] |  |  | +++ (+++ potentiation greater than 5 fold increase) | ++ (++ potentiation between 2.1 to 5 fold increase) |  |
| 11-deoxy-11-imino-4-deoxy-3,4[2-spiro-[1-(2-morpholinoethyl)-piperidin-4-yl]]-(1H)-imidazo-(2,5-dihydro)rifamycin S [RTI-53] | 0.2 | + (+ potentiation between 1.2 to 2.0 fold increase) | + (+ potentiation between 1.2 to 2.0 fold increase) |  |  |
| COC1C=COC2(C)Oc3c(C)c(O)c4c(c3C2N)C2=NC3(CCN(CC(C)C)CC3)NC2=C(NC(=O)C(C)=CC=CC(C)C(O)C(C)C(O)C(C)C(OC(C)=O)C1C)C4=O (stereo not drawn) [RTI-181, 11-deoxy-11-amino-4-deoxy-3,4[2-spiro-[1-(2-methylpropyl)-piperidin-4-yl]]-(1H)-imidazo-(2,5-dihydro)rifamycin S] | 5.5 | + (+ potentiation between 1.2 to 2.0 fold increase) | +++ (+++ potentiation greater than 5 fold increase) | +++ (+++ potentiation greater than 5 fold increase) |  |
| antimycin A |  |  |  |  | Induction of ROS (total intracellular ROS; [8]): not |
| CC(=O)OCOC(=O)CN(CC(=O)OCOC(C)=O)c1ccccc1OCCOc1ccccc1N(CC(=O)OCOC(C)=O)CC(=O)OCOC(C)=O [BAPTA-AM] |  |  |  |  | Induction of ROS (total intracellular ROS; [8]): induced ROS |
| 4-deoxy-3,4[2-spiro-[1-(n-propyloxycarbonyl)-piperidin-4-yl]]-(1H)-imidazo-(2,5-dihydro)rifamycin S [RTI-78] | 29.5 |  |  |  |  |
| CO[C@H]1/C=C/O[C@@]2(C)Oc3c(C)c(O)c4c(O)c(c5c(c4c3C2O)=NC2(CCN(CC(C)C)CC2)N=5)NC(=O)/C(C)=C\C=C\[C@H](C)[C@H](O)[C@@H](C)[C@@H](O)[C@@H](C)[C@H](OC(C)=O)[C@@H]1C (stereo partly drawn) [RTI-174, 11-deoxy-11-hydroxy-4-deoxy-3,4[2-spiro-[1-(2-methylpropyl)-piperidin-4-yl]]-(1H)-imidazo-(2,5-dihydro)rifamycin S] |  | + (+ potentiation between 1.2 to 2.0 fold increase) | + (+ potentiation between 1.2 to 2.0 fold increase) | ++ (++ potentiation between 2.1 to 5 fold increase) | Magnitude of potentiation in combination with doxorubicin [4]: + (+ potentiation between 1.2 to 2.0 fold increase) |
| CCNC(=O)N1CCC2(CC1)N=c1c3c(O)c4c(O)c(C)c5c(c4c1=N2)C(=N)[C@@](C)(O/C=C/[C@H](OC)[C@@H](C)[C@@H](OC(C)=O)[C@H](C)[C@H](O)[C@H](C)[C@@H](O)[C@@H](C)/C=C/C=C(/C)C(=O)N3)O5 [RTI-82, 11-deoxy-11-imino-4-deoxy-3,4[2-spiro-[1-(ethylaminocarbonyl)-piperidin-4-yl]]-(1H)-imidazo-(2,5-dihydro)rifamycin S] | 0.7 |  |  |  | Magnitude of potentiation in combination with doxorubicin [5]: +++ (+++ potentiation greater than 5 fold increase) |
| 11-deoxy-11-imino-4-deoxy-3,4[2-spiro-[1-(isobutyloxycarbonyl)-piperidin-4-yl]]-(1H)-imidazo-(2,5-dihydro)rifamycin S [RTI-81] |  |  | +++ (+++ potentiation greater than 5 fold increase) | +++ (+++ potentiation greater than 5 fold increase) | Magnitude of potentiation in combination with doxorubicin [6]: ++ (++ potentiation between 2.1 to 5 fold increase); Magnitude of potentiation in combination with doxorubicin [4]: + (+ potentiation between 1.2 to 2.0 fold increase); Longer life than doxorubicin only ([7]; DOX 3.3 mg/kg iv + RTI-81 10 mg/kg by gavage twice weekly): 27%; Mean lifespan ([7]; doxorubicin+RTI-81 group): 42.6; Median lifespan ([7]; doxorubicin+RTI-81 group): 42 |
| 11-deoxy-11-imino-4-deoxy-3,4[2-spiro-[1-(isobutylaminocarbonyl)-piperidin-4-yl]]-(1H)-imidazo-(2,5-dihydro)rifamycin S [RTI-182] | 2.0 | + (+ potentiation between 1.2 to 2.0 fold increase) | ++ (++ potentiation between 2.1 to 5 fold increase) | + (+ potentiation between 1.2 to 2.0 fold increase) | Magnitude of potentiation in combination with doxorubicin [5]: ++ (++ potentiation between 2.1 to 5 fold increase) |
